Drawing on patent US10703757B2, “Compounds and methods for CDK8 modulation and indications therefor” (Plexxikon Inc., priority 2016, dated 2020), this text covers IC50 for 28 compounds.

Test [1] concerns CDK8 (phosphorylation of STAT1 at serine 727 in A549 cells). Briefly: Cell based Phospho-STAT1 assay (IFNγ-stimulated A549 cells, AlphaLISA). Conditions: Homo sapiens, A549, A549 cells, phospho-STAT1 after IFNγ stimulation. Put shortly: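 A549 cells given serial compound dilutions for 1 h at 37 °C, then stimulated with IFNγ at 10 ng/mL final for 30 min. Lysate STAT1 Ser727 phosphorylation measured by AlphaLISA; % inhibition vs stimulated/unstimulated DMSO controls, IC50 by nonlinear regression.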

For test [2], the system named is CDK8 (TCF/LEF luciferase reporter in HCT116 cells). Briefly: Cell based TCF/LEF reporter assay (HCT116+TCF/LEF luciferase). Conditions: Homo sapiens, HCT-116, 24 h. Put shortly: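 Luciferase readout was corrected for viability (CellTiter-Fluor) and scaled between DMSO high and 10 uM CCT251545 low controls, giving IC50 by nonlinear regression. Compounds, serially diluted, were incubated 24 h at 37 °C on HCT116 clones stably expressing a TCF/LEF-driven luciferase reporter.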

By IC50 is commonly meant the concentration that inhibits the measured activity by half. A lower IC50 goes with higher potency. For `Cn1ncc2cc(-c3cnc4[nH]ccc4c3C3=CCC(C#N)CC3)ccc21` (centres unmarked) [Compound P-0358, 4-(5-(1-methyl-1H-indazol-5-yl)-1H-pyrrolo[2,3-b]pyridin-4-yl)cyclohex-3-ene-1-carbonitrile], the IC50 in test [1] and in test [2] was 0.1 to 100 nM each time.

Consider `Cn1cc(-c2ccc(-c3cnc4[nH]ccc4c3C3=CCC(C#N)CC3)cc2)cn1` (centres unmarked) [Compound P-0359, 4-(5-(4-(1-methyl-1H-pyrazol-4-yl)phenyl)-1H-pyrrolo[2,3-b]pyridin-4-yl)cyclohex-3-ene-1-carbonitrile], for which the IC50 in test [1] and in test [2] was 0.1 to 100 nM throughout.

For `Cn1ncc2cc(-c3cnn4cccc(C#CC5(O)COC5)c34)ccc21` [Compound P-0362, 3-((3-(1-methyl-1H-indazol-5-yl)pyrazolo[1,5-a]pyridin-4-yl)ethynyl)oxetan-3-ol], the IC50 in test [1] lay in the range of 0.1 to 100 nM; in test [2] it was 100 to 1000 nM.

`N#CC1CCN(c2cccn3ncc(-c4ccc(-n5cccn5)cc4)c23)CC1` [Compound P-0363, 1-(3-(4-(1H-pyrazol-1-yl)phenyl)pyrazolo[1,5-a]pyridin-4-yl)piperidine-4-carbonitrile]: the IC50 in test [1] and in test [2] was 0.1 to 100 nM in each case.

For the compound `Cc1noc(-c2ccc(-c3cnn4cccc(N5CCC(C#N)CC5)c34)cc2)n1` [Compound P-0366, 1-(3-(4-(3-methyl-1,2,4-oxadiazol-5-yl)phenyl)pyrazolo[1,5-a]pyridin-4-yl)piperidine-4-carbonitrile], the IC50 in test [1] and in test [2] was 0.1 to 100 nM throughout.

As for `N#CC1CCN(c2cccn3ncc(-c4ccc(-c5cnn(C(F)F)c5)cc4)c23)CC1` [Compound P-0415, 1-(3-(4-(1-(difluoromethyl)-1H-pyrazol-4-yl)phenyl)pyrazolo[1,5-a]pyridin-4-yl)piperidine-4-carbonitrile], the IC50 in test [1] and in test [2] was 0.1 to 100 nM each time.

For the compound `Cn1cc(-c2ccc(-c3cnc4cccc(C5=CCC(C(N)=O)CC5)n34)cc2)cn1` (centres unmarked) [Compound P-0416, 4-(3-(4-(1-methyl-1H-pyrazol-4-yl)phenyl)imidazo[1,2-a]pyridin-5-yl)cyclohex-3-ene-1-carboxamide], the IC50 in test [1] and in test [2] was 100 to 1000 nM in each case.

With `Cn1cc(-c2ccc(-c3cnc4[nH]ccc4c3N3CCC(C#N)CC3)cc2)cn1` [Compound P-0421, 1-(5-(4-(1-methyl-1H-pyrazol-4-yl)phenyl)-1H-pyrrolo[2,3-b]pyridin-4-yl)piperidine-4-carbonitrile], the IC50 in test [1] and in test [2] was 0.1 to 100 nM throughout.

For the compound `Cn1cc(-c2ccc(-c3cnn4cccc(C#CC(C)(C)O)c34)cc2)cn1` [Compound P-0429, 2-methyl-4-[3-[4-(1-methylpyrazol-4-yl)phenyl]pyrazolo[1,5-a]pyridin-4-yl]but-3-yn-2-ol], the IC50 in test [1] and in test [2] was 0.1 to 100 nM each time.

For `Cn1cc(C#Cc2cnc3cccc(N4CCC5(CC4)C(=O)Nc4ccccc45)n23)cn1` [Compound P-0437, 1′-(3-((1-methyl-1H-pyrazol-4-yl)ethynyl)imidazo[1,2-a]pyridin-5-yl)spiro[indoline-3,4′-piperidin]-2-one], the 50% inhibitory concentration (IC50) in test [1] and in test [2] was 0.1 to 100 nM each time.

For the compound `N#CC1CC=C(c2cccc3ncc(-c4ccc(-c5cnn(C(F)F)c5)cc4)n23)CC1` (centres unmarked) [Compound P-0438, 4-(3-(4-(1-(difluoromethyl)-1H-pyrazol-4-yl)phenyl)imidazo[1,2-a]pyridin-5-yl)cyclohex-3-ene-1-carbonitrile], the IC50 in test [1] and in test [2] was 0.1 to 100 nM each time.

With `Cn1cc(-c2ccc(-c3cnn4cccc(C5=CCC(C(N)=O)CC5)c34)cc2)cn1` (centres unmarked) [Compound P-0443, 4-(3-(4-(1-methyl-1H-pyrazol-4-yl)phenyl)pyrazolo[1,5-a]pyridin-4-yl)cyclohex-3-ene-1-carboxamide], the IC50 in test [1] and in test [2] was 0.1 to 100 nM in each case.

Take `Cn1cc(-c2ccc(-c3cnn4cccc(C5=CCC(C(=O)O)CC5)c34)cc2)cn1` (centres unmarked) [Compound P-0444, 4-(3-(4-(1-methyl-1H-pyrazol-4-yl)phenyl)pyrazolo[1,5-a]pyridin-4-yl)cyclohex-3-ene-1-carboxylic acid]: the IC50 in test [1] and in test [2] was 100 to 1000 nM each time.

`Cn1cc(-c2ccc(-c3cnc4cccc(C5=CCC(C#N)CC5)n34)cc2)cn1` (centres unmarked) [Compound P-0445, 4-(3-(4-(1-methyl-1H-pyrazol-4-yl)phenyl)imidazo[1,2-a]pyridin-5-yl)cyclohex-3-ene-1-carbonitrile]: the IC50 in test [1] and in test [2] was 0.1 to 100 nM each time.

In the case of `Cn1cc(-c2ccc(-c3cnn4cccc(C5=CCC(C#N)CC5)c34)cc2)cn1` (centres unmarked) [Compound P-0452, 4-(3-(4-(1-methyl-1H-pyrazol-4-yl)phenyl)pyrazolo[1,5-a]pyridin-4-yl)cyclohex-3-ene-1-carbonitrile], the IC50 in test [1] and in test [2] was 0.1 to 100 nM each time.

In the case of `Cn1cc(-c2ccc(-c3cnc4cccc(N5CCC6(CC5)C(=O)Nc5ccccc56)n34)cc2)cn1` [Compound P-0454, 1′-(3-(4-(1-methyl-1H-pyrazol-4-yl)phenyl)imidazo[1,2-a]pyridin-5-yl)spiro[indoline-3,4′-piperidin]-2-one], the IC50 in test [1] and in test [2] was 0.1 to 100 nM each time.

For the compound `CC(C)(C#Cc1nccn2ncc(-c3ccc(-c4cnn(CCCC#N)c4)cc3)c12)C(N)=O` [Compound P-0456, 4-(3-(4-(1-(3-cyanopropyl)-1H-pyrazol-4-yl)phenyl)pyrazolo[1,5-a]pyrazin-4-yl)-2,2-dimethylbut-3-ynamide], the IC50 in test [1] and in test [2] was 0.1 to 100 nM in each case.

Regarding `COc1ccc(-c2cnn3ccnc(C4CCC(C#N)CC4)c23)cc1C` (centres unmarked) [Compound P-0457, (1s,4s)-4-(3-(4-methoxy-3-methylphenyl)pyrazolo[1,5-a]pyrazin-4-yl)cyclohexane-1-carbonitrile], the IC50 in test [1] and in test [2] was 0.1 to 100 nM throughout.

Regarding `CC(C)(O)Cn1cc(-c2ccc(-c3cnn4ccnc(C5CCC(C#N)CC5)c34)nc2)cn1` (centres unmarked) [Compound P-0458, (1s,4s)-4-(3-(5-(1-(2-hydroxy-2-methylpropyl)-1H-pyrazol-4-yl)pyridin-2-yl)pyrazolo[1,5-a]pyrazin-4-yl)cyclohexane-1-carbonitrile], the IC50 in test [1] and in test [2] was 0.1 to 100 nM throughout.

`CC(C)(O)Cn1cc(-c2ccc(-c3cnn4ccnc(C5CCC(C#N)CC5)c34)cn2)cn1` (centres unmarked) [Compound P-0459, (1s,4s)-4-(3-(6-(1-(2-hydroxy-2-methylpropyl)-1H-pyrazol-4-yl)pyridin-3-yl)pyrazolo[1,5-a]pyrazin-4-yl)cyclohexane-1-carbonitrile]: the IC50 in test [1] and in test [2] was 0.1 to 100 nM throughout.

For `CC(C)(C#Cc1cccn2ncc(-c3ccc(-c4cnn(CS(C)(=O)=O)c4)cc3)c12)C(N)=O` [Compound P-0460, 2,2-dimethyl-4-(3-(4-(1-((methylsulfonyl)methyl)-1H-pyrazol-4-yl)phenyl)pyrazolo[1,5-a]pyridin-4-yl)but-3-ynamide], the IC50 in test [1] and in test [2] was 0.1 to 100 nM in each case.

In the case of `CC(C)(C#Cc1cccn2ncc(-c3ccc(-c4cnn(CCCC#N)c4)cc3)c12)C(N)=O` [Compound P-0461, 4-(3-(4-(1-(3-cyanopropyl)-1H-pyrazol-4-yl)phenyl)pyrazolo[1,5-a]pyridin-4-yl)-2,2-dimethylbut-3-ynamide], the IC50 in test [1] and in test [2] was 0.1 to 100 nM in each case.

With `CC(C)(C#Cc1cccn2ncc(-c3ccc(-c4cnn(CC(N)=O)c4)cc3)c12)C(N)=O` [Compound P-0462, 4-(3-(4-(1-(2-amino-2-oxoethyl)-1H-pyrazol-4-yl)phenyl)pyrazolo[1,5-a]pyridin-4-yl)-2,2-dimethylbut-3-ynamide], the IC50 in test [1] and in test [2] was 0.1 to 100 nM each time.

As to `CC(C)(C#Cc1cccn2ncc(-c3ccc(-c4cnn(CC5CC5)c4)cc3)c12)C(N)=O` [Compound P-0463, 4-(3-(4-(1-(cyclopropylmethyl)-1H-pyrazol-4-yl)phenyl)pyrazolo[1,5-a]pyridin-4-yl)-2,2-dimethylbut-3-ynamide], the IC50 in test [1] and in test [2] was 0.1 to 100 nM each time.

`CC(C)(C#Cc1cccn2ncc(-c3ccc(-c4cnn(CCS(C)(=O)=O)c4)cc3)c12)C(N)=O` [Compound P-0464, 2,2-dimethyl-4-(3-(4-(1-(2-(methylsulfonyl)ethyl)-1H-pyrazol-4-yl)phenyl)pyrazolo[1,5-a]pyridin-4-yl)but-3-ynamide]: the IC50 in test [1] and in test [2] was 0.1 to 100 nM throughout.

As for `CC(C)(C#Cc1cccn2ncc(-c3ccc(-c4cnn(CCN5CCCC5)c4)cc3)c12)C(N)=O` [Compound P-0465, 2,2-dimethyl-4-(3-(4-(1-(2-(pyrrolidin-1-yl)ethyl)-1H-pyrazol-4-yl)phenyl)pyrazolo[1,5-a]pyridin-4-yl)but-3-ynamide], the IC50 in test [1] and in test [2] was 0.1 to 100 nM throughout.

With `CC(C)(C#Cc1cccn2ncc(-c3ccc(-c4cnn(CCF)c4)cc3)c12)C(N)=O` [Compound P-0466, 4-(3-(4-(1-(2-fluoroethyl)-1H-pyrazol-4-yl)phenyl)pyrazolo[1,5-a]pyridin-4-yl)-2,2-dimethylbut-3-ynamide], the IC50 in test [1] and in test [2] was 0.1 to 100 nM throughout.

Consider `CC(C)(C#Cc1cccn2ncc(-c3ccc(-c4cnn(CC(F)F)c4)cc3)c12)C(N)=O` [Compound P-0467, 4-(3-(4-(1-(2,2-difluoroethyl)-1H-pyrazol-4-yl)phenyl)pyrazolo[1,5-a]pyridin-4-yl)-2,2-dimethylbut-3-ynamide], for which the IC50 in test [1] and in test [2] was 0.1 to 100 nM throughout.
